In patent US10144738B2, “Pyrazolo[1,5-A]PYRAZIN-4-YL derivatives” (Pfizer Inc., priority 2016, dated 2018):

Columns and labels:
[1] = target: JAK3 (Homo sapiens (Human), UniProt P52333); assay: JAK Caliper enzyme assay at 1 mM ATP (JAK3); assay type: biochemical; conditions: recombinant human kinase domain, Caliper mobility shift
Method: (§1) Compounds of the invention were evaluated by in vitro methods to determine their respective ability to inhibit the JAK kinases (TYK2, JAK1, JAK2, JAK3).
(§2) The human JAK inhibitory activity was determined by using a microfluidic assay to monitor phosphorylation of a synthetic peptide by the recombinant human kinase domain of each of the four members of the JAK family, JAK1, JAK2, JAK3 and TYK2. […] Each assay condition was optimized for enzyme concentration and room temperature incubation time to obtain a conversion rate of 20% to 30% phosphorylated peptide product. Reactions were terminated by the addition of stop buffer containing EDTA. Utilizing the LabChip 3000 mobility shift technology (Caliper Life Science), each assay reaction was sampled to determine the level of phosphorylation. This technology is separation-based, allowing direct detection of fluorescently labeled substrates and products. Separations are controlled by a combination of vacuum pressure and electric field strength optimized for each peptide substrate.
(§3) JAK Caliper Enzyme Assay at 1 mM ATP
(§4) Compounds were added to a 384-well plate. Reaction mixtures contained 10 mM HEPES, pH 7.4, 10 mM MgCl2, 0.01% BSA, 0.0005% Tween 20, 1 mM ATP and 1 μM peptide substrate. […] The assays were initiated by the addition of 20 nM JAK1, 1 nM JAK2, 1 nM JAK or 1 nM TYK2 enzyme and were incubated at room temperature for three hours for JAK1, 60 minutes for JAK2, 75 minutes for JAK3 or 135 minutes for TYK2. Enzyme concentrations and incubation times were optimized for each new enzyme preps and were modified slightly over time to ensure 20% to 30% phosphorylation. The assays were stopped with 15 μL of 180 mM HEPES, pH 7.4, 20 mM EDTA, and 0.2% Coating Reagent 3. The assay plates were placed on a Caliper Life Science LC3000 instrument, and each well was sampled using appropriate separation conditions to measure the unphosphorylated and phosphorylated peptide.
(§5) The data was collected using the HTS Well Analyzer software from Caliper Life Sciences. The data output for data analysis is the percent product converted calculated on peak height (Equation 1). % product converted=100*((product)/(product+substrate)) Equation 1: […]
(§6) The percent effect at each compound concentration was calculated based on the positive and negative control well contained within each assay plate (Equation 2). […] The negative control wells contained DMSO alone (at the same concentration as the compound wells) that was used to set the baseline activity in the assay (i.e., uninhibited JAK1, JAK2, JAK3 or TYK2). % effect=100*((sample well−negative control)/(positive control-negative control)) Equation 2: The percent effect was plotted against the compound concentration compound.

[2] = tested on: IL-12 induced STAT4 phosphorylation (IL-12 signals through TYK2 and JAK2); assay: Human Whole Blood IL-12 Induced STAT4 Phosphorylation Assay; assay type: cell-based; conditions: Lymphocyte, IL-12 5 ng/mL, pSTAT4 in lymphocytes by flow cytometry, read-out: HWB IL-12 IC50
Method: Selected compounds were assessed for their ability to inhibit IL-12 signaling in a human whole blood flow cytometry assay. IL-12 signals through TYK2 and JAK2. Human Whole Blood IL-12 Induced STAT4 Phosphorylation Assay
Test articles were prepared as 30 mM stocks in DMSO. An 11-point 2.5 dilution series was created in DMSO with a top concentration of 10 mM. Further dilution was done by adding 4 μL of the above test article solutions into 96 μL of PBS with a top concentration of 400 μM. […] Blood was warmed to 37° C. prior to use. Human whole blood was aliquoted ([…]) in 96-well, deep-well, V-bottom plates and treated with compounds at 11 different concentrations (0.2% DMSO final) at 37° C. for 60 minutes. This was followed by a challenge with IL-12 ([…]; final, 5 ng/mL) for 15 minutes. Samples were treated with warm 1× Lyse/Fix buffer ([…]) to terminate activation and further incubated at 37° C. for 20 minutes to lyse red blood cells. Plates were centrifuged at 300×g for 5 minutes, supernatant was aspirated, and cells were washed with […] of staining buffer (PBS containing 0.5% fetal bovine serum and 0.01% sodium azide). The washed cell pellets were resuspended with […] of pre-chilled 90% methanol, and incubated at 4° C. for 30 minutes. Plates were centrifuged at 300×g for 5 minutes, supernatant containing 90% methanol was aspirated, and cells were washed with […]/well of staining buffer. Cell pellets were resuspended in staining buffer containing anti-pSTAT4-AlexaFluor647 (1 to 150 dilution, […]), and incubated at room temperature in the dark overnight.
Samples were transferred to 96-well U-bottom plates and flow cytometric analysis was performed on a FACSCalibur or LSRFortessa equipped with a HTS plate loader (BD Biosciences). The lymphocyte population was gated for histogram analysis of pSTAT4. Background fluorescence was defined using unstimulated cells and a gate was placed at the foot of the peak to include ˜0.5% gated population. The histogram statistical analysis was performed using CellQuestO Pro version 5.2.1 (BD Biosciences) or FACSDiva version 6.2 (BD Biosciences) software. Relative fluorescence unit (RFU), which measures the level of phospho STAT4, was calculated by multiplying the percent positive population and its mean fluorescence. Data from 11 compound concentrations (singlicate at each concentration) was normalized as a percentage of control based on the formula: % of Control=100×(A−B)/(C−B) where A is the RFU from wells containing compound and IL-12, B is the RFU from wells without IL-12 and compound (minimum fluorescence) and C is the RFU from wells containing only IL-12 (maximum fluorescence). Inhibition curves and IC50 values were determined using the Prism version 5 software (GraphPad, La Jolla, Calif.).

[3] = target: JAK2 (Homo sapiens (Human), UniProt O60674); assay: JAK Caliper enzyme assay at 1 mM ATP (JAK2); assay type: biochemical; conditions: recombinant human kinase domain, Caliper mobility shift
Chain of JAK2 (O60674 849-1124): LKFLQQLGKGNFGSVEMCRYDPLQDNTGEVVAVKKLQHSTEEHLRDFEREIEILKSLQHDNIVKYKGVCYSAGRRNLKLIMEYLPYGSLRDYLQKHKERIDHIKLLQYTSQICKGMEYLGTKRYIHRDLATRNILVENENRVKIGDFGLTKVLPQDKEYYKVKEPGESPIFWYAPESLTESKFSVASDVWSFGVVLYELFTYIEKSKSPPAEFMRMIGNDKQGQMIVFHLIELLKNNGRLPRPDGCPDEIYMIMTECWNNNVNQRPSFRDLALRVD
Method: as §1, §2, §3, §4, §5, §6

[4] = target: TYK2 (Homo sapiens (Human), UniProt P29597); assay: JAK Caliper enzyme assay at 1 mM ATP (TYK2); assay type: biochemical; conditions: recombinant human kinase domain, Caliper mobility shift
Chain of TYK2 (P29597 897-1176): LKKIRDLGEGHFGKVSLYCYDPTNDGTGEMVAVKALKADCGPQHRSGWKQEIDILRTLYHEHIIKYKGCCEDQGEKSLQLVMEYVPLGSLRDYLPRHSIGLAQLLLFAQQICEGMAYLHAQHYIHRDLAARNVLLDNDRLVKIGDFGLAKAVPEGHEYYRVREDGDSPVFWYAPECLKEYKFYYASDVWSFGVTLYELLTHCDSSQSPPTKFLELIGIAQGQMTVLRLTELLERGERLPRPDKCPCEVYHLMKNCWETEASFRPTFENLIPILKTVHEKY
Method: as §1, §2, §3, §4, §5, §6

[5] = target: JAK1 (Homo sapiens (Human), UniProt P23458); assay: JAK Caliper enzyme assay at 1 mM ATP (JAK1); assay type: biochemical; conditions: recombinant human kinase domain, Caliper mobility shift
Chain of JAK1 (P23458 875-1153): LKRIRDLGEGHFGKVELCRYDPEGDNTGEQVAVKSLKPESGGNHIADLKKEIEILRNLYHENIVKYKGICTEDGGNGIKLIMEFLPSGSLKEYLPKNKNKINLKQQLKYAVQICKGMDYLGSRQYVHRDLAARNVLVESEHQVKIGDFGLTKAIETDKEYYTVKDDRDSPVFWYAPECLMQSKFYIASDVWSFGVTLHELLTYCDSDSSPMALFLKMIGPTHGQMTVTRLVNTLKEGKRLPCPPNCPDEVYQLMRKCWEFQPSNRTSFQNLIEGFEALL
Method: Compounds of the invention were evaluated by in vitro methods to determine their respective ability to inhibit the JAK kinases (TYK2, JAK1, JAK2, JAK3). The human JAK inhibitory activity was determined by using a microfluidic assay to monitor phosphorylation of a synthetic peptide by the recombinant human kinase domain of each of the four members of the JAK family, JAK1, JAK2, JAK3 and TYK2. […] Reactions were terminated by the addition of stop buffer containing EDTA. Utilizing the LabChip 3000 mobility shift technology (Caliper Life Science), each assay reaction was sampled to determine the level of phosphorylation. This technology is separation-based, allowing direct detection of fluorescently labeled substrates and products. Separations are controlled by a combination of vacuum pressure and electric field strength optimized for each peptide substrate. […] Compounds were added to a 384-well plate. […] Enzyme concentrations and incubation times were optimized for each new enzyme preps and were modified slightly over time to ensure 20% to 30% phosphorylation. […] The assay plates were placed on a Caliper Life Science LC3000 instrument, and each well was sampled using appropriate separation conditions to measure the unphosphorylated and phosphorylated peptide. The data was collected using the HTS Well Analyzer software from Caliper Life Sciences. […] The percent effect at each compound concentration was calculated based on the positive and negative control well contained within each assay plate (Equation 2). […] The percent effect was plotted against the compound concentration compound. […] Where max is the maximum asymptote (complete inhibition), min is the minimum asymptote (no inhibition) and s is the slope factor.

Chain of JAK3 (P52333 822-1111): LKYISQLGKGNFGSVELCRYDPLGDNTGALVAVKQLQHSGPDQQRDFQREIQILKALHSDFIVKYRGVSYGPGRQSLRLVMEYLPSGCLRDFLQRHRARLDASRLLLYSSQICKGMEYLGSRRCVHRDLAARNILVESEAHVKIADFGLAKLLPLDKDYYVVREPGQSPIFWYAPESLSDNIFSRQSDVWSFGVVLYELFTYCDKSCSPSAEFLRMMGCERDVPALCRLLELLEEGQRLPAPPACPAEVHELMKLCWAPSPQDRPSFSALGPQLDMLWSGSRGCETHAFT

## Cn1cc(-c2cn3nccc3c(-c3cnn([C@]4(CC#N)C[C@@H](C#N)C4)c3)n2)c(N)n1 [Example 23, (1r,3r)-3-(4-(6-(3-Amino-1-methyl-1H-pyrazol-4-yl)pyrazolo[1,5-a]pyrazin-4-yl)-1H-pyrazol-1-yl)-3-(cyanomethyl)cyclobutane-1-carbonitrile]
[1]
  IC50: 9410 nM
[2]
  IC50: 34 nM
[3]
  IC50: 26 nM
[4]
  IC50: 9 nM
[5]
  IC50: 431 nM

## Cc1cnn2cc(-c3cnn(C)c3)nc(-c3cnn([C@]4(CC#N)C[C@@H](C#N)C4)c3)c12 [Example 25, (1r,3r)-3-(Cyanomethyl)-3-(4-(3-methyl-6-(1-methyl-1H-pyrazol-4-yl)pyrazolo[1,5-a]pyrazin-4-yl)-1H-pyrazol-1-yl)cyclobutane-1-carbonitrile]
[1]
  IC50: > 10000 nM
[2]
  IC50: 59 nM
[3]
  IC50: 99 nM
[4]
  IC50: 23 nM
[5]
  IC50: 319 nM

## CO[C@H]1C[C@@](CC#N)(n2cc(-c3nc(-c4cc(CO)[nH]n4)cn4nccc34)cn2)C1 [Example 27, 2-((1 s,3r)-1-(4-(6-(5-(Hydroxymethyl)-1H-pyrazol-3-yl)pyrazolo[1,5-a]pyrazin-4-yl)-1H-pyrazol-1-yl)-3-methoxycyclobutyl)acetonitrile]
[1]
  IC50: > 10000 nM
[2]
  IC50: 86 nM
[3]
  IC50: 171 nM
[4]
  IC50: 24 nM
[5]
  IC50: 737 nM

## CO[C@H]1C[C@](CC#N)(n2cc(-c3nc(-c4cc(N)[nH]n4)cn4nccc34)cn2)C1 [Example 30, 2-((1r,3s)-1-(4-(6-(3-Amino-1H-pyrazol-5-yl)pyrazolo[1,5-a]pyrazin-4-yl)-1H-pyrazol-1-yl)-3-methoxycyclobutyl)acetonitrile]
[1]
  IC50: > 10000 nM
[2]
  IC50: 46 nM
[3]
  IC50: 71 nM
[4]
  IC50: 7 nM
[5]
  IC50: 174 nM

## CO[C@H]1C[C@@](CC#N)(n2cc(-c3nc(-c4cc(C(N)=O)n[nH]4)cn4nccc34)cn2)C1 [Example 32]
[1]
  IC50: > 10000 nM
[2]
  IC50: 130 nM
[3]
  IC50: 339 nM
[4]
  IC50: 17 nM
[5]
  IC50: 2250 nM
